Laboratory results as given in PubChem BioAssay AID2060499 (Molecular Pharmacology Branch, DTP, NCI, 2025).
Several values for one entry are separate records, joined by “and”; a condition that tells them apart may be missing. Equal entries are not always repeated.

System: 777334-354-R2-J4-PDC tumor spheroids with HUVEC/MSC, viability
Assay: Anticancer human tumor 777334-354-R2-J4-PDC patient-derived pancreatic adenocarcinoma cell line growth inhibition [GQUAD]
Settings: for viability, T/C: stronger effect = lower value
Text: DNA G-quadruplex Stabilizer Agents in Combinations in Complex Spheroids
A high-throughput screen of multi-cell type tumor spheroids was designed to identify active combinations of DNA G-quadruplex stabilizer agents and targeted small molecules. Complex spheroids include a stromal component modeled by human endothelial cells (HUVEC) and fibroblasts modeled by human mesenchymal stem cells (MSCs). The concentration ranges selected for each drug and investigational agent were based upon clinically achievable concentrations if the clinical Cmax of the agent was known.
Compounds. The drugs and investigational agents: pidnarulex (CX-5461; NSC782164), APTO-253 (NSC789042), BRACO-19 (NSC847499), peposertib (NSC802822), ceralasertib (NSC780249), elimusertib (NSC800525), camonsertib (NSC841442), AZD-1390 (NSC803789), olaparib (NSC753686), talazoparib (NSC767125), ART-558 (NSC835418), sotorasib (NSC818433), MRTX-1133 (NSC836407), SN-38 (NSC673596), topotecan (NSC609699), etoposide (NSC141540), doxorubicin (NSC123127), gemcitabine (NSC613327), 5-fluorouracil (NSC19893), paclitaxel (NSC125973), vemurafenib (NSC761431), panobinostat (NSC761190), R-306465 (JNJ-16241199; NSC773264), adavosertib (NSC754352), TP-3654 (NSC805149), carboplatin (NSC241240), KSQ-4279 (NSC840948), and staurosporine (NSC755774) were obtained from the National Cancer Institute (NCI) Developmental Therapeutics Program Chemical Repository (34). The FDA-approved anticancer drug set is available from the NCI Developmental Therapeutics Program. […] The stock solutions were prepared in dimethyl sulfoxide (DMSO, Sigma-Aldrich, St. Louis, MO, cat. D2650) at 800-fold the tested concentration and stored at -70 degrees C prior to their use. All drugs and investigational agents were tested over a range starting from a high concentration at or near the clinical Cmax and decreasing in half-log increments. If the clinical Cmax for an agent had not been determined, the highest concentration tested was 10 microM.
2.3 Cell Culture. All cells were maintained in an incubator at 37 degrees C and 5% CO2 with 95% humidity. The PDC lines were cultured according to standard operating procedures established by the NCI PDMR. All PDCs were thawed and cultured in Matrigel-coated flasks prepared with a working solution of 1X Ham's F-12 nutrient mix, without supplementation (Invitrogen, cat. 11765054), 100 U/mL penicillin-streptomycin (Invitrogen, cat. 15140122), and 2.5% Matrigel (Corning Inc., cat. 354248) for the first three passages. The 857933-349-R-J2-PDC line was cultured in 6C/Colon 1B media, which includes advanced DMEM/F-12 (Thermo Fisher Scientific, cat. 12634028), 10 mM HEPES (Thermo Fisher Scientific, cat. 15630080), 1X GlutaMAX supplement (Thermo Fisher Scientific, cat. 35050061), 0.1 mg/mL primocin (InvivoGen, cat. ant-pm-2), 10% defined fetal bovine serum, heat inactivated (HyClone Laboratories Inc., cat. SH30070.03HI), 50% L-WRN conditioned media (ATCC, cat. CRL-3276), 1.25 mM N-Acetyl-L-cysteine (Sigma-Aldrich, cat. A9165), 10 mM nicotinamide (Sigma-Aldrich, cat. N0636), 1X B-27 supplement (Thermo Fisher Scientific, cat. 17504044), 1X N-2 supplement (Thermo Fisher Scientific, cat. 17502048), 10 microM Y-27632 dihydrochloride (Tocris Bioscience, cat. 1254), and 50 ng/mL human EGF recombinant protein (Thermo Fisher Scientific, cat. PHG0311). The 485176-168-R4-J1-PDC line was cultured in Panc media, which includes all 6C/Colon 1B media components plus 100 ng/mL human FGF-10 (Thermo Fisher Scientific, cat. 100-26), 500 nM SB-431542 (Selleckchem, cat. S1067), and gastrin (Tocris, cat. 3006).
[…]

[1] = curve of first compound, second compound 0.0316 µM
[2] = curve of first compound, second compound 0.1 µM
[3] = curve of first compound, second compound 0.316 µM
[4] = curve of first compound, second compound 1 µM
[5] = curve of first compound, second compound 3.16 µM
[6] = curve of first compound, second compound 10 µM
[7] = second compound 0.0316 µM, first compound 0.0316 µM
[8] = second compound 0.0316 µM, first compound 0.1 µM
[9] = second compound 0.0316 µM, first compound 0.316 µM
[10] = second compound 0.0316 µM, first compound 1 µM
[11] = second compound 0.0316 µM, first compound 3.16 µM
[12] = second compound 0.0316 µM, first compound 10 µM
[13] = second compound 0.1 µM, first compound 0.0316 µM
[14] = second compound 0.1 µM, first compound 0.1 µM
[15] = second compound 0.1 µM, first compound 0.316 µM
[16] = second compound 0.1 µM, first compound 1 µM
[17] = second compound 0.1 µM, first compound 3.16 µM
[18] = second compound 0.1 µM, first compound 10 µM
[19] = second compound 0.316 µM, first compound 0.0316 µM
[20] = second compound 0.316 µM, first compound 0.1 µM
[21] = second compound 0.316 µM, first compound 0.316 µM
[22] = second compound 0.316 µM, first compound 1 µM
[23] = second compound 0.316 µM, first compound 3.16 µM
[24] = second compound 0.316 µM, first compound 10 µM
[25] = second compound 1 µM, first compound 0.0316 µM
[26] = second compound 1 µM, first compound 0.1 µM
[27] = second compound 1 µM, first compound 0.316 µM
[28] = second compound 1 µM, first compound 1 µM
[29] = second compound 1 µM, first compound 3.16 µM
[30] = second compound 1 µM, first compound 10 µM
[31] = second compound 3.16 µM, first compound 0.0316 µM
[32] = second compound 3.16 µM, first compound 0.1 µM
[33] = second compound 3.16 µM, first compound 0.316 µM
[34] = second compound 3.16 µM, first compound 1 µM
[35] = second compound 3.16 µM, first compound 3.16 µM
[36] = second compound 3.16 µM, first compound 10 µM
[37] = second compound 10 µM, first compound 0.0316 µM
[38] = second compound 10 µM, first compound 0.1 µM
[39] = second compound 10 µM, first compound 0.316 µM
[40] = second compound 10 µM, first compound 1 µM
[41] = second compound 10 µM, first compound 3.16 µM
[42] = second compound 10 µM, first compound 10 µM
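Further: spheroids exposed to compounds for 7 days before readout.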

With `Cc1cccc(N(C)C(=O)C2C(O)CCN2c2nc(C)cc(C(F)(F)F)c2C#N)c1` (stereo not drawn) the viability, T/C (compound 0.0316 µM) was 102% (2×) and 107%, the viability, T/C (compound 0.1 µM) was 108% and 104% and 87.8% and the viability, T/C (compound 0.316 µM) was 99.9% and 101% and 98.9%. The viability, T/C (compound 1 µM) was 87.3% and 100% and 95%, the viability, T/C (compound 3.16 µM) was 92.4% and 93.6% and 109% and the viability, T/C (compound 10 µM) was 96.5% and 85.7% and 94.7%. For the same compound, the IC50 (curve of compound) was over 10 µM.
`CC1COCCN1c1cc(C2(S(C)(=N)=O)CC2)nc(-c2ccnc3[nH]ccc23)n1` (stereo not drawn) was tested, and the viability, T/C (compound 0.0316 µM) was 112% and 90.9% and 98.4%, the viability, T/C (compound 0.1 µM) was 106% (2×) and 86.8% and the viability, T/C (compound 0.316 µM) was 105% and 99.7% and 115%. For the same compound, the viability, T/C (compound 1 µM) was 105% and 84% and 101%, the viability, T/C (compound 3.16 µM) was 89.7% and 86.5% and 112% and the viability, T/C (compound 10 µM) was 63% and 58.7% and 63.3%. It also gave an IC50 (curve of compound) of over 10 µM.
In the case of `C=CCn1c(=O)c2cnc(Nc3ccc(N4CCN(C)CC4)cc3)nc2n1-c1cccc(C(C)(C)O)n1` + Cc1[nH]c2ccc(F)cc2c1-c1nc2c3cccnc3c3ncccc3c2[nH]1, the IC50 [1] is reported as 0.725 µM, the IC50 [2] is reported as 0.869 µM and the IC50 [3] is reported as 0.738 µM. It also gave an IC50 [4] of 0.71 µM, an IC50 [5] of 0.0316 µM and an IC50 [6] of under 0.0316 µM. It also gave a viability, T/C [7] of 100%, a viability, T/C [8] of 106% and a viability, T/C [9] of 79.5%. The viability, T/C [10] was 39.5%, the viability, T/C [11] was 30.6% and the viability, T/C [12] was 34.6%. The viability, T/C [13] was 87.5%, the viability, T/C [14] was 92.9% and the viability, T/C [15] was 78%. For the same compound, the viability, T/C [16] was 46.6%, the viability, T/C [17] was 33.1% and the viability, T/C [18] was 34.5%. For the same compound, the viability, T/C [19] was 94.3%, the viability, T/C [20] was 99.8% and the viability, T/C [21] was 82.8%. For the same compound, the viability, T/C [22] was 38.3%, the viability, T/C [23] was 36.7% and the viability, T/C [24] was 30.9%. It also gave a viability, T/C [25] of 75.3%, a viability, T/C [26] of 77.5% and a viability, T/C [27] of 73.1%. The viability, T/C [28] was 40.1%, the viability, T/C [29] was 34% and the viability, T/C [30] was 28.1%. For the same compound, the viability, T/C [31] was 50.4%, the viability, T/C [32] was 36.9% and the viability, T/C [33] was 50.8%. For the same compound, the viability, T/C [34] was 12.8%, the viability, T/C [35] was 14% and the viability, T/C [36] was 14.2%. For the same compound, the viability, T/C [37] was 31.7%, the viability, T/C [38] was 27.5% and the viability, T/C [39] was 24.7%. It also gave a viability, T/C [40] of 14.8%, a viability, T/C [41] of 14.1% and a viability, T/C [42] of 11.2%.
`CCCS(=O)(=O)Nc1ccc(F)c(C(=O)c2c[nH]c3ncc(-c4ccc(Cl)cc4)cc23)c1F` + CN(C)c1ccc(Nc2c3ccc(NC(=O)CCN4CCCC4)cc3nc3cc(NC(=O)CCN4CCCC4)ccc23)cc1 was tested, and the IC50 [1] was 8.17 µM, the IC50 [2] was 8.42 µM and the IC50 [3] was 8.71 µM. It also gave an IC50 [4] of 8.4 µM, an IC50 [5] of 8.42 µM and an IC50 [6] of 6.42 µM. The viability, T/C [7] was 93%, the viability, T/C [8] was 97% and the viability, T/C [9] was 115%. For the same compound, the viability, T/C [10] was 115%, the viability, T/C [11] was 116% and the viability, T/C [12] was 37.6%. For the same compound, the viability, T/C [13] was 92.5%, the viability, T/C [14] was 105% and the viability, T/C [15] was 127%. For the same compound, the viability, T/C [16] was 128%, the viability, T/C [17] was 151% and the viability, T/C [18] was 37.6%. It also gave a viability, T/C [19] of 101%, a viability, T/C [20] of 98.5% and a viability, T/C [21] of 130%. For the same compound, the viability, T/C [22] was 117%, the viability, T/C [23] was 152% and the viability, T/C [24] was 40.5%. For the same compound, the viability, T/C [25] was 92.4%, the viability, T/C [26] was 98.6% and the viability, T/C [27] was 107%. It also gave a viability, T/C [28] of 124%, a viability, T/C [29] of 137% and a viability, T/C [30] of 39%. It also gave a viability, T/C [31] of 81.6%, a viability, T/C [32] of 107% and a viability, T/C [33] of 97.6%. For the same compound, the viability, T/C [34] was 122%, the viability, T/C [35] was 131% and the viability, T/C [36] was 39.8%. For the same compound, the viability, T/C [37] was 88%, the viability, T/C [38] was 87% and the viability, T/C [39] was 87.9%. The viability, T/C [40] was 93.6%, the viability, T/C [41] was 81.1% and the viability, T/C [42] was 30.1%.
